# Results as given in publication PMC5962072, “Structural insights on the efficient catalysis of hydroperoxide reduction by Ohr: Crystallographic and molecular dynamics approaches” (PLoS ONE, 2018).
# Molecular target: T1, XfOhr (Ohr from Xylella fastidiosa) (Xylella fastidiosa, UniProt Q9PCF4)
# T1 construct: gene XF_1827
# T1 sequence (Q9PCF4 1-143): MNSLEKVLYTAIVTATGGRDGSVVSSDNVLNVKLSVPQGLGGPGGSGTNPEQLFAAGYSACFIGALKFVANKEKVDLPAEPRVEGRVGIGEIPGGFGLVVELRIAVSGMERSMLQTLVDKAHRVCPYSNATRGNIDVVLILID
smiles,measurement,value
NC(=O)CCCC[C@@H](S)CCS [dihydrolipoamide],"lipoamide-lipoamide dehydrogenase peroxidase-coupled assay, NADH decay at 340 nm",XfOhr R19A and XfOhr E51A presented only residual dihydrolipoamide-dependent peroxidase activity
